pIC50: −log10 of the molar value.
The molecules below were run against GST-Xa-hAAK1 (Homo sapiens (Human), UniProt Q2M2I8) (assay: AAK1 Kinase Assay). Conditions: bacterially expressed GST-Xa-hAAK1 3.5 nM; ATP 22 μM; peptide substrate 1.5 μM; 3 hours at room temperature; Caliper LabChip 3000.
Sequence of GST-Xa-hAAK1 (Q2M2I8 whole entry): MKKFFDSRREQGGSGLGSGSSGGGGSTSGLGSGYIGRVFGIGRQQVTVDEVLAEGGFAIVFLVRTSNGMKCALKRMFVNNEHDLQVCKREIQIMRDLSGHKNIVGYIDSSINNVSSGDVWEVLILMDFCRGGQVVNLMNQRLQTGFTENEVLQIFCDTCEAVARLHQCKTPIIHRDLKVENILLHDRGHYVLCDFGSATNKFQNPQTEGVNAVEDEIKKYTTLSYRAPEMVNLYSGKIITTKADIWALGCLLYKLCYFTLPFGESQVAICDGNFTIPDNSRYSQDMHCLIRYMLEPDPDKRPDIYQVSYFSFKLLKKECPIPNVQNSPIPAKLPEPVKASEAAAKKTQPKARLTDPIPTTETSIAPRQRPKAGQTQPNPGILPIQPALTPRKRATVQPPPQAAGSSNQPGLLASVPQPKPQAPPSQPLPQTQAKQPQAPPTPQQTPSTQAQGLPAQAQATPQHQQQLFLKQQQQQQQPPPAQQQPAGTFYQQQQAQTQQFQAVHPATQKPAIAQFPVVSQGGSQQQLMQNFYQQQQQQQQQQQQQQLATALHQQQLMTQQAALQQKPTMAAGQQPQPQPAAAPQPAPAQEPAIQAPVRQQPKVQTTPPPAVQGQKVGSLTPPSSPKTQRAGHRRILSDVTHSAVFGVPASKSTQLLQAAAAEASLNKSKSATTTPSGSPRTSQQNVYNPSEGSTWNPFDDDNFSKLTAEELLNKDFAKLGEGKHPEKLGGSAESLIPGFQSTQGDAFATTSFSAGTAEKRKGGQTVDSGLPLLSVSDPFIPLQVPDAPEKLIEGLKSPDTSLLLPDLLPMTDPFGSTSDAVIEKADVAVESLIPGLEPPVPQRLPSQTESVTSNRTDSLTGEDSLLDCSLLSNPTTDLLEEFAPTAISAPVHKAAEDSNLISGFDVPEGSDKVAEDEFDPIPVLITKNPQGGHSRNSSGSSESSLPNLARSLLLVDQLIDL
Format: biochemical
Work on `CC(=O)Nc1cc(-c2ccc(OC[C@@](C)(N)CC(C)C)c(OC(F)(F)F)c2)ccn1` [Example 25, (S)—N-(4-(4-((2-amino-2,4-dimethylpentyl)oxy)-3-(trifluoromethoxy)phenyl)pyridin-2-yl)acetamide] yielded a pIC50 of 9.00.
Molecule `COC(=O)Nc1cc(-c2ccc(OCC3(CC(C)C)CNC3)c(C)n2)ccn1` [Example 108, methyl (5-((3-isobutylazetidin-3-yl)methoxy)-6-methyl-[2,4′-bipyridin]-2′-yl)carbamate] has a pIC50 of 6.97.
Molecule `Cc1cc(-c2ccc(OC[C@@](C)(N)CC(C)C)c(C(F)(F)F)c2)ccn1` [Example 45, (S)-2,4-dimethyl-1-(4-(2-methylpyridin-4-yl)-2-(trifluoromethyl)phenoxy)pentan-2-amine] has a pIC50 of 8.92.
`COC(=O)Nc1nccc(-c2ccc(OC[C@@](C)(N)CC(C)C)c(C#N)c2)c1F` [Example 100, (S)-methyl (4-(4-((2-amino-2,4-dimethylpentyl)oxy)-3-cyanophenyl)-3-fluoropyridin-2-yl)carbamate] showed a pIC50 of 8.17.
`CC(=O)Nc1cc(-c2ccc(OC[C@@H](N)CC(C)C)c(C#N)c2)ccn1` [Example 3, (S)—N-(4-(4-((2-amino-4-methylpentyl)oxy)-3-cyanophenyl)pyridin-2-yl)acetamide] was tested, and the pIC50 was 9.52.
Work on `COC(=O)Nc1nccc(-c2ccc(OC[C@@](C)(N)CC(C)C)c(C)n2)c1F` [Example 157, (S)-methyl (5-((2-amino-2,4-dimethylpentyl)oxy)-3′-fluoro-6-methyl-[2,4′-bipyridin]-2′-yl)carbamate] yielded a pIC50 of 7.72.
In the case of `CC(=O)Nc1cc(-c2cc(F)c(OC[C@@H](N)CC(C)C)cc2F)ccn1` [Example 12, (S)—N-(4-(4-((2-amino-4-methylpentyl)oxy)-2,5-difluorophenyl)pyridin-2-yl)acetamide], the pIC50 was 8.80.
For `CC(C)C[C@](C)(N)COc1cnc(-c2ccnc(Cl)c2)cc1C(F)F` [Example 147, (S)-1-((2′-chloro-4-(difluoromethyl)-[2,4′-bipyridin]-5-yl)oxy)-2,4-dimethylpentan-2-amine], the pIC50 was 9.25.
`CC(C)C[C@](C)(N)COc1ccc(-c2ccnc3cc(F)cc(F)c23)nc1Cl` [Example 135, (S)-1-((2-chloro-6-(5,7-difluoroquinolin-4-yl)pyridin-3-yl)oxy)-2,4-dimethylpentan-2-amine] was tested, and the pIC50 was 8.46.
`COc1cnccc1-c1ccc(OC[C@@](C)(N)CC(C)C)c(C(F)(F)F)c1` [Example 46, (S)-1-(4-(3-methoxypyridin-4-yl)-2-(trifluoromethyl)phenoxy)-2,4-dimethylpentan-2-amine] showed a pIC50 of 9.07.
`CC(=O)Nc1cc(-c2ccc(OC[C@@](C)(N)CC(C)C)c(C(F)F)c2)ccn1` [Example 23, (S)—N-(4-(4-((2-amino-2,4-dimethylpentyl)oxy)-3-(difluoromethyl)phenyl)pyridin-2-yl)acetamide] was tested, and the pIC50 was 9.12.
Molecule `CC(C)C[C@](C)(N)COc1ccc(-c2ccnc3ccccc23)nc1Cl` [Example 83, (S)-1-((2-chloro-6-(quinolin-4-yl)pyridin-3-yl)oxy)-2,4-dimethylpentan-2-amine] has a pIC50 of 8.74.
Molecule `CC(C)C[C@](C)(N)COc1ccc(-c2ccnc(C(F)F)c2)cc1C(F)F` [Example 37, (S)-1-(2-(difluoromethyl)-4-(2-(difluoromethyl)pyridin-4-yl)phenoxy)-2,4-dimethylpentan-2-amine] has a pIC50 of 9.29.
Molecule `COC(=O)Nc1cc(-c2cc(Cl)c(OC[C@@](C)(N)CC(C)C)cn2)ccn1` [Example 237, (S)-methyl (5-((2-amino-2,4-dimethylpentyl)oxy)-4-chloro-[2,4′-bipyridin]-2′-yl)carbamate] has a pIC50 of 8.85.
`CC(C)C[C@@](N)(CF)COc1cnc(-c2ccnc(C(F)F)c2)cc1C(F)F` [Example 184, (S)-1-((2′,4-bis(difluoromethyl)-[2,4′-bipyridin]-5-yl)oxy)-2-(fluoromethyl)-4-methylpentan-2-amine] gave a pIC50 of 8.48.
With `CC(C)C[C@](C)(N)COc1ccc(-c2ccnc3ccccc23)cc1S(C)(=O)=O` [Example 115, (S)-2,4-dimethyl-1-(2-(methylsulfonyl)-4-(quinolin-4-yl)phenoxy)pentan-2-amine] the pIC50 was 7.89.
Work on `CC(C)C[C@@](C)(N)COc1cnc(-c2ccnc3ccccc23)cc1C(F)(F)F` [Example 165, (R)-2,4-dimethyl-1-((6-(quinolin-4-yl)-4-(trifluoromethyl)pyridin-3-yl)oxy)pentan-2-amine] yielded a pIC50 of 7.68.
For `Cc1cc(-c2ccc(OC[C@@](C)(N)CC(C)C)c(C(F)F)n2)cnn1` [Example 163, (S)-1-((2-(difluoromethyl)-6-(6-methylpyridazin-4-yl)pyridin-3-yl)oxy)-2,4-dimethylpentan-2-amine], the pIC50 was 5.96.
`CC(C)C[C@](C)(N)COc1cnc(-c2ccnc3ccc(Cl)cc23)cc1Cl` [Example 239, (S)-1-((4-chloro-6-(6-chloroquinolin-4-yl)pyridin-3-yl)oxy)-2,4-dimethylpentan-2-amine] showed a pIC50 of 9.41.
`CC(C)C[C@@](C)(N)COc1ncc(-c2ccnc3ccccc23)cc1C(F)F` [Example 246, (R)-1-((3-(difluoromethyl)-5-(quinolin-4-yl)pyridin-2-yl)oxy)-2,4-dimethylpentan-2-amine] gave a pIC50 of 7.59.
Molecule `CC(C)C[C@](C)(N)COc1ccc(-c2ccnc3ccccc23)nc1C(F)F` [Example 118, (S)-1-((2-(difluoromethyl)-6-(quinolin-4-yl)pyridin-3-yl)oxy)-2,4-dimethylpentan-2-amine] has a pIC50 of 9.07.
`CC(C)C[C@](N)(CF)COc1ccc(-c2ccnc(C(F)F)c2)nc1C(F)F` [Example 185, (R)-1-((2′,6-bis(difluoromethyl)-[2,4′-bipyridin]-5-yl)oxy)-2-(fluoromethyl)-4-methylpentan-2-amine] showed a pIC50 of 7.18.
With `Cc1ccc2c(-c3cnc(OC[C@@](C)(N)CC(C)C)c(C(F)F)c3)ccnc2c1` [Example 205, (S)-1-((3-(difluoromethyl)-5-(7-methylquinolin-4-yl)pyridin-2-yl)oxy)-2,4-dimethylpentan-2-amine] the pIC50 was 9.15.
In the case of `COC(=O)Nc1cc(-c2ccc(OC[C@@](C)(N)CC(C)C)c(CN(C)C)c2)ccn1` [Example 112, (S)-methyl (4-(4-((2-amino-2,4-dimethylpentyl)oxy)-3-((dimethylamino)methyl)phenyl)pyridin-2-yl)carbamate], the pIC50 was 6.01.
In the case of `Cc1cc(-c2cc(C(F)(F)F)c(OC[C@@](C)(N)CC(C)C)cn2)ccn1` [Example 144, (S)-2,4-dimethyl-1-((2′-methyl-4-(trifluoromethyl)-[2,4′-bipyridin]-5-yl)oxy)pentan-2-amine], the pIC50 was 8.89.
`CC(C)C[C@](C)(N)COc1cnc(-c2ccnc(C(F)F)c2)cc1C(F)F` [Example 124, (S)-1-((2′,4-bis(difluoromethyl)-[2,4′-bipyridin]-5-yl)oxy)-2,4-dimethylpentan-2-amine] was tested, and the pIC50 was 8.92.
With `CC(=O)Nc1cc(-c2cc(F)c(OC[C@@H](N)CC(C)C)c(C(F)(F)F)c2)ccn1` [Example 11, (S)—N-(4-(4-((2-amino-4-methylpentyl)oxy)-3-fluoro-5-(trifluoromethyl)phenyl)pyridin-2-yl)acetamide] the pIC50 was 8.48.
`CC(C)C[C@](C)(N)COc1ccc(-c2ccncc2F)cc1C(F)(F)F` [Example 47, (S)-1-(4-(3-fluoropyridin-4-yl)-2-(trifluoromethyl)phenoxy)-2,4-dimethylpentan-2-amine] gave a pIC50 of 9.11.
With `Cc1cc(-c2ccnc(C(F)F)c2)ncc1OC[C@@](C)(N)CC(C)C` [Example 125, (S)-1-((2′-(difluoromethyl)-4-methyl-[2,4′-bipyridin]-5-yl)oxy)-2,4-dimethylpentan-2-amine] the pIC50 was 8.80.
For `COC(=O)Nc1cc(-c2ccc(OC[C@@H](N)CC(C)C)c(F)c2)ccn1` [Example 13, (S)-methyl (4-(4-((2-amino-4-methylpentyl)oxy)-3-fluorophenyl)pyridin-2-yl)carbamate], the pIC50 was 8.96.
Molecule `CC(C)CC(C)(N)COc1c(F)cc(-c2ccnc3ccccc23)cc1Cl` (stereo not drawn) [Example 75, 1-(2-chloro-6-fluoro-4-(quinolin-4-yl)phenoxy)-2,4-dimethylpentan-2-amine] has a pIC50 of 7.47.
In the case of `Cc1cc(-c2ccnc3ccc(F)cc23)cnc1OC[C@@](C)(N)CC(C)C` [Example 223, (S)-1-((5-(6-fluoroquinolin-4-yl)-3-methylpyridin-2-yl)oxy)-2,4-dimethylpentan-2-amine], the pIC50 was 9.06.
Work on `CC(C)C[C@](C)(N)COc1ccc(-c2ccncc2)cc1C(F)(F)F` [Example 43, (S)-2,4-dimethyl-1-(4-(pyridin-4-yl)-2-(trifluoromethyl)phenoxy)pentan-2-amine] yielded a pIC50 of 9.19.
`COC(=O)Nc1cc(-c2ccc(OC[C@@](C)(N)CC(C)C)c(OC(F)(F)F)c2)ccn1` [Example 26, (S)-methyl (4-(4-((2-amino-2,4-dimethylpentyl)oxy)-3-(trifluoromethoxy)phenyl)pyridin-2-yl)carbamate] was tested, and the pIC50 was 9.16.
`CC(C)C[C@](C)(N)COc1ccc(-c2ccnc3cc(F)ccc23)nc1C(F)F` [Example 128, (S)-1-((2-(difluoromethyl)-6-(7-fluoroquinolin-4-yl)pyridin-3-yl)oxy)-2,4-dimethylpentan-2-amine] showed a pIC50 of 8.46.
In the case of `COC(=O)Nc1cc(-c2ccc(OCC(C)(N)CC(C)C)c(C)c2C)ccn1` (stereo not drawn) [Example 31, methyl (4-(4-((2-amino-2,4-dimethylpentyl)oxy)-2,3-dimethylphenyl)pyridin-2-yl)carbamate], the pIC50 was 8.35.
Work on `Cc1nccc(-c2ccc(OC[C@@](C)(N)CC(C)C)c(C(F)(F)F)c2)c1C(=O)O` [Example 111, (S)-4-(4-((2-amino-2,4-dimethylpentyl)oxy)-3-(trifluoromethyl)phenyl)-2-methylnicotinic acid] yielded a pIC50 of 6.19.
Work on `Cc1cc(-c2ccnc(F)c2)cnc1OC[C@@](C)(N)CC(C)C` [Example 95, (S)-1-((2′-fluoro-5-methyl-[3,4′-bipyridin]-6-yl)oxy)-2,4-dimethylpentan-2-amine] yielded a pIC50 of 7.41.
`CC(C)C[C@](C)(N)COc1ncc(-c2ccnc3ccccc23)cc1F` [Example 98, (S)-1-((3-fluoro-5-(quinolin-4-yl)pyridin-2-yl)oxy)-2,4-dimethylpentan-2-amine] showed a pIC50 of 8.00.

Reference: patent US9902722B2, “Biaryl kinase inhibitors” (BRISTOL-MYERS SQUIBB COMPANY, priority 2014, dated 2018)
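Also: each compound tested across an eleven-point concentration series, with IC50 obtained through non-linear regression fitting.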
